In patent US4801456A, “Growth hormone-releasing factor analogs” (International Minerals & Chemical Corp., priority 1987, dated 1989):
Square brackets hold non-standard residues; d marks the D form. Ends that are not written are not given here. Peptide text beside a SMILES is read from it. Nle = CCCC[C@H](N)C(=O)O

What was measured:
[1] = test system: rat pituitary cells in tissue culture; experiment: Bioassay of hGRF analogs: GH release from cultured pituitary cells; format: cell-based; details: for Dose Needed to Release 2.01 μg/ml of GH (ED50 value for hGRF) / Maximum GH Released / Relative Maximum Activity (% of hGRF): from curves generated by ALLFIT; for GH release at dosages comparable to native hGRF: referring to Table 1; for Potency: (ED50 of hGRF)/(Dose required to give same response as ED50 of hGRF): relative to hGRF(1-44)-NH2 = 100
Source text: The assay for biological activity, which is based on the ability to stimulate release of growth hormone in rat pituitary cells in tissue culture, has been described in detail (Culler, M. D.; Kenjo, T.: Obara, N.; Arimuar, A., Stimulation of cAMP. Accumulation by Human Pancreatic GH-Releasing Factor-(1-44). Am. J. Physiol. 1984, 247 (Endocrinol.Metab.10), E609-E615.
ALLFIT, the 4-parameter logistic curve fitting program available from the Biomedical Computer Technology Information Center, Vanderbilt Medical Center, Nashville TN, was used to determine ED50 and maximal stimulated values from the data. In several instances, the amount of GH released reached a maximum value and decreased with further increasing doses of the hGRF analogs. To simplify the data analysis, these values were not used in the calculations. The calculated maximal responses, the doses of the analog required to release the amount of GH released at the ED50 of the standard (hGRF) and the potencies of the analogs relative to hGRF, are given in Table 2. Generally all novel analogs were fully active and were able to stimulate the release of growth hormone with maximal values of GH release being within 80% of the value for natural hGRF.

[2] = test system: GH releasing activity; details: reported by Rivier et al.; cited from earlier work

CCCC[C@H](NC(=O)[C@@H](NC(=O)[C@H](CC(N)=O)NC(=O)[C@H](CCC(N)=O)NC(=O)[C@H](CC(C)C)NC(=O)[C@H](CC(C)C)NC(=O)[C@H](CCCCN)NC(=O)[C@H](CCCNC(=N)N)NC(=O)[C@H](C)NC(=O)[C@H](CO)NC(=O)[C@H](CC(C)C)NC(=O)[C@H](CCC(N)=O)NC(=O)CNC(=O)[C@H](CC(C)C)NC(=O)[C@@H](NC(=O)[C@H](CCCCN)NC(=O)[C@H](CCCNC(=N)N)NC(=O)[C@H](Cc1ccc(O)cc1)NC(=O)[C@H](CO)NC(=O)[C@H](CC(N)=O)NC(=O)[C@@H](NC(=O)[C@H](Cc1ccccc1)NC(=O)[C@@H](NC(=O)[C@H](C)NC(=O)[C@H](CC(=O)O)NC(=O)[C@H](C)NC(=O)[C@@H](N)Cc1ccc(O)cc1)[C@@H](C)CC)[C@@H](C)O)C(C)C)[C@@H](C)CC)C(=O)N[C@@H](CO)C(=O)N[C@@H](CCCNC(=N)N)C(=O)N[C@@H](CCC(N)=O)C(=O)N[C@@H](CCC(N)=O)C(N)=O [[Asn^25,Nle^27], [Asn^25,Nle^27]-hGRF(1-31)--NH2] (H-YADAIFTNSYRKVLGQLSARKLLQNI[Nle]SRQQ-NH2)
GH Released (mean ± (S.E.)) ([1]; Dose 1 × 10^-6 M): 3.22 (0.24) μg/mL | GH Released (mean ± (S.E.)) ([1]; Dose 1 × 10^-7 M): 3.22 (0.09) μg/mL | GH Released (mean ± (S.E.)) ([1]; Dose 1 × 10^-8 M): 3.10 (0.12) μg/mL | GH Released (mean ± (S.E.)) ([1]; Dose 1 × 10^-9 M): 3.12 (0.15) μg/mL | GH Released (mean ± (S.E.)) ([1]; Dose 1 × 10^-10 M): 1.84 (0.06) μg/mL | GH Released (mean ± (S.E.)) ([1]; Dose 1 × 10^-11 M): 0.72 (0.05) μg/mL | Dose Needed to Release 2.01 μg/ml of GH (ED50 value for hGRF) [1]: 0.12 nM | Maximum GH Released [1]: 3.18 µg/mL | Relative Maximum Activity (% of hGRF) [1]: 96% | times more potent than hGRF(1-44)--NH2 ([1]; on a molar basis): 2.7 times | GH release at dosages comparable to native hGRF [1]: induced GH release in dosages comparable to those for native hGRF | Potency: (ED50 of hGRF)/(Dose required to give same response as ED50 of hGRF) [1]: 267%

CCCC[C@H](NC(=O)[C@@H](NC(=O)[C@H](CC(N)=O)NC(=O)[C@H](CCC(N)=O)NC(=O)[C@H](CC(C)C)NC(=O)[C@H](CC(C)C)NC(=O)[C@H](CCCCN)NC(=O)[C@H](CCCNC(=N)N)NC(=O)[C@H](C)NC(=O)[C@H](CO)NC(=O)[C@H](CC(C)C)NC(=O)[C@H](CCC(N)=O)NC(=O)CNC(=O)[C@H](CC(C)C)NC(=O)[C@@H](NC(=O)[C@H](CCCCN)NC(=O)[C@H](CCCNC(=N)N)NC(=O)[C@H](Cc1ccc(O)cc1)NC(=O)[C@H](CO)NC(=O)[C@H](CC(=O)O)NC(=O)[C@@H](NC(=O)[C@H](Cc1ccccc1)NC(=O)[C@@H](NC(=O)[C@H](C)NC(=O)[C@H](CC(=O)O)NC(=O)[C@H](C)NC(=O)[C@@H](N)Cc1ccc(O)cc1)[C@@H](C)CC)[C@@H](C)O)C(C)C)[C@@H](C)CC)C(=O)N[C@@H](CO)C(=O)N[C@@H](CCCNC(=N)N)C(=O)N[C@@H](CCC(N)=O)C(=O)N[C@@H](CCC(N)=O)C(N)=O [[Asp^8,Asn^25,Nle^27], [Asp^8,Asn^25,Nle^27]-hGRF(1-31)--NH2] (H-YADAIFTDSYRKVLGQLSARKLLQNI[Nle]SRQQ-NH2)
GH Released (mean ± (S.E.)) ([1]; Dose 1 × 10^-6 M): 2.86 (0.07) μg/mL | GH Released (mean ± (S.E.)) ([1]; Dose 1 × 10^-7 M): 2.93 (0.17) μg/mL | GH Released (mean ± (S.E.)) ([1]; Dose 1 × 10^-8 M): 2.86 (0.08) μg/mL | GH Released (mean ± (S.E.)) ([1]; Dose 1 × 10^-9 M): 2.59 (0.17) μg/mL | GH Released (mean ± (S.E.)) ([1]; Dose 1 × 10^-10 M): 0.96 (0.07) μg/mL | GH Released (mean ± (S.E.)) ([1]; Dose 1 × 10^-11 M): 0.74 (0.09) μg/mL | Dose Needed to Release 2.01 μg/ml of GH (ED50 value for hGRF) [1]: 0.42 nM | Maximum GH Released [1]: 2.89 µg/mL | Relative Maximum Activity (% of hGRF) [1]: 87% | GH release at dosages comparable to native hGRF [1]: induced GH release in dosages comparable to those for native hGRF | Potency: (ED50 of hGRF)/(Dose required to give same response as ED50 of hGRF) [1]: 76%

CCCC[C@H](NC(=O)[C@@H](NC(=O)[C@H](CC(=O)O)NC(=O)[C@H](CCC(N)=O)NC(=O)[C@H](CC(C)C)NC(=O)[C@H](CC(C)C)NC(=O)[C@H](CCCCN)NC(=O)[C@H](CCCNC(=N)N)NC(=O)[C@H](C)NC(=O)[C@H](CO)NC(=O)[C@H](CC(C)C)NC(=O)[C@H](CCC(N)=O)NC(=O)CNC(=O)[C@H](CC(C)C)NC(=O)[C@@H](NC(=O)[C@H](CCCCN)NC(=O)[C@H](CCCNC(=N)N)NC(=O)[C@H](Cc1ccc(O)cc1)NC(=O)[C@H](CO)NC(=O)[C@H](CC(=O)O)NC(=O)[C@@H](NC(=O)[C@H](Cc1ccccc1)NC(=O)[C@@H](NC(=O)[C@H](C)NC(=O)[C@H](CC(=O)O)NC(=O)[C@H](C)NC(=O)[C@@H](N)Cc1ccc(O)cc1)[C@@H](C)CC)[C@@H](C)O)C(C)C)[C@@H](C)CC)C(=O)N[C@@H](CO)C(=O)N[C@@H](CCCNC(=N)N)C(=O)N[C@@H](CCC(N)=O)C(=O)N[C@@H](CCC(N)=O)C(N)=O [[Asp^8,Nle^27], [Asp^8,Nle^27]-hGRF(1-31)---NH2] (H-YADAIFTDSYRKVLGQLSARKLLQDI[Nle]SRQQ-NH2)
GH Released (mean ± (S.E.)) ([1]; Dose 1 × 10^-6 M): 3.17 (0.24) μg/mL | GH Released (mean ± (S.E.)) ([1]; Dose 1 × 10^-7 M): 3.52 (0.22) μg/mL | GH Released (mean ± (S.E.)) ([1]; Dose 1 × 10^-8 M): 3.59 (0.17) μg/mL | GH Released (mean ± (S.E.)) ([1]; Dose 1 × 10^-9 M): 2.69 (0.12) μg/mL | GH Released (mean ± (S.E.)) ([1]; Dose 1 × 10^-10 M): 1.18 (0.10) μg/mL | GH Released (mean ± (S.E.)) ([1]; Dose 1 × 10^-11 M): 0.61 (0.03) μg/mL | Dose Needed to Release 2.01 μg/ml of GH (ED50 value for hGRF) [1]: 0.39 nM | Maximum GH Released [1]: 3.60 µg/mL | Relative Maximum Activity (% of hGRF) [1]: 109% | GH release at dosages comparable to native hGRF [1]: induced GH release in dosages comparable to those for native hGRF | Potency: (ED50 of hGRF)/(Dose required to give same response as ED50 of hGRF) [1]: 82%

CC[C@H](C)[C@H](NC(=O)[C@H](C)NC(=O)[C@H](CC(=O)O)NC(=O)[C@H](C)NC(=O)[C@@H](N)Cc1ccc(O)cc1)C(=O)N[C@@H](Cc1ccccc1)C(=O)N[C@H](C(=O)N[C@@H](CC(N)=O)C(=O)N[C@@H](CO)C(=O)N[C@@H](Cc1ccc(O)cc1)C(=O)N[C@@H](CCCNC(=N)N)C(=O)N[C@@H](CCCCN)C(=O)N[C@H](C(=O)N[C@@H](CC(C)C)C(=O)NCC(=O)N[C@@H](CCC(N)=O)C(=O)N[C@@H](CC(C)C)C(=O)N[C@@H](CO)C(=O)N[C@@H](C)C(=O)N[C@@H](CCCNC(=N)N)C(=O)N[C@@H](CCCCN)C(=O)N[C@@H](CC(C)C)C(=O)N[C@@H](CC(C)C)C(=O)N[C@@H](CCC(N)=O)C(=O)N[C@@H](CC(=O)O)C(=O)N[C@H](C(=O)N[C@@H](CCSC)C(=O)N[C@@H](CO)C(=O)N[C@@H](CCCNC(=N)N)C(=O)N[C@@H](CCC(N)=O)C(=O)N[C@@H](CCC(N)=O)C(=O)NCC(=O)N[C@@H](CCC(=O)O)C(=O)N[C@@H](CO)C(=O)N[C@@H](CC(N)=O)C(=O)N[C@@H](CCC(N)=O)C(=O)N[C@@H](CCC(=O)O)C(=O)N[C@@H](CCCNC(=N)N)C(=O)NCC(=O)N[C@@H](C)C(=O)N[C@@H](CCCNC(=N)N)C(=O)N[C@@H](C)C(=O)N[C@@H](CCCNC(=N)N)C(=O)N[C@@H](CC(C)C)C(N)=O)[C@@H](C)CC)C(C)C)[C@@H](C)O [hGRF(1-44)-NH2, hGRF(1-44)--NH2, reference compound]
GH Released (mean ± (S.E.)) ([1]; Dose 1 × 10^-6 M): 2.81 (0.13) μg/mL | GH Released (mean ± (S.E.)) ([1]; Dose 1 × 10^-7 M): 3.17 (0.12) μg/mL | GH Released (mean ± (S.E.)) ([1]; Dose 1 × 10^-8 M): 3.44 (0.23) μg/mL | GH Released (mean ± (S.E.)) ([1]; Dose 1 × 10^-9 M): 2.84 (0.12) μg/mL | GH Released (mean ± (S.E.)) ([1]; Dose 1 × 10^-10 M): 1.16 (0.04) μg/mL | GH Released (mean ± (S.E.)) ([1]; Dose 1 × 10^-11 M): 0.73 (0.03) μg/mL | Dose Needed to Release 2.01 μg/ml of GH (ED50 value for hGRF) [1]: 0.32 nM | Maximum GH Released [1]: 3.31 µg/mL | Relative Maximum Activity (% of hGRF) [1]: 100% | Biological activity compared with natural hGRF(1-44)--NH2 ([1]; natural hGRF isolated from a human pancreatic tumor (Salk Institute standard)): identical to the natural hGRF(1-44)--NH2 | Potency: (ED50 of hGRF)/(Dose required to give same response as ED50 of hGRF) [1]: 100%

hpGRF(1-27)--NH2 (YADAIFTNSYRKVLGQLSARKLLQDIM-NH2; UniProt P01286 32-58, looked up, fragment) [shortened GRF analog tested by Rivier et al]
activity compared in vitro with the parent hpGRF(1-40)--OH [2]: exhibited similar activity

hpGRF(1-29)--NH2 (YADAIFTNSYRKVLGQLSARKLLQDIMSR-NH2; UniProt P01286 32-60, looked up, fragment) [shortened GRF analog tested by Rivier et al]
activity compared in vitro with the parent hpGRF(1-40)--OH [2]: exhibited similar activity

hpGRF(1-32)--NH2 (YADAIFTNSYRKVLGQLSARKLLQDIMSRQQG-NH2; UniProt P01286 32-63, looked up, fragment) [shortened GRF analog tested by Rivier et al]
activity compared in vitro with the parent hpGRF(1-40)--OH [2]: exhibited similar activity

hpGRF(1-39)--NH2 (YADAIFTNSYRKVLGQLSARKLLQDIMSRQQGESNQERG-NH2; UniProt P01286 32-70, looked up, fragment) [shortened GRF analog tested by Rivier et al]
activity compared in vitro with the parent hpGRF(1-40)--OH [2]: exhibited similar activity

hpGRF(1-40)--NH2 (YADAIFTNSYRKVLGQLSARKLLQDIMSRQQGESNQERGA-NH2; UniProt P01286 32-71, looked up, fragment) [shortened GRF analog tested by Rivier et al]
activity compared in vitro with the parent hpGRF(1-40)--OH [2]: exhibited similar activity
